“Also recorded” adds a separate entry of the source.
Tests used:
[1] = test system: Acyrthosiphon pisum aphids; experiment: Aphid survival monitoring; format: in vivo
[2] = test system: Acyrthosiphon pisum aphids; experiment: Aphid developmental stage monitoring; format: in vivo; conditions: for aphids that did not mature further than the 4rd instar stage: 11 days post-treatment
Description: (§1) In addition, the developmental stage (1st, 2nd, 3rd, 4th, 5th instar) was determined daily throughout the experiment. Once an aphid reached the 4th instar stage, they were given their own artificial feeding system in a deep petri dish so that fecundity could be monitored once they reached adulthood.
(§2) Each treatment group received approximately the same number of individuals from each of the collection plant. For each treatment, 20 aphids were placed onto each leaf. Aphids were monitored daily for survival and dead aphids were removed when they were discovered. In addition, the developmental stage (1st, 2nd, 3rd, 4th, 5th instar, and 5 R, representing a reproducing 5th instar) was determined daily throughout the experiment. Pictures of aphids were taken throughout the experiment to evaluate size differences between treatment groups.
Aphids LSR-1 (which harbor only Buchnera), Acyrthosiphon pisum were grown on fava bean plants (Vroma vicia faba from Johnny's Selected Seeds) in a climate-controlled incubator (16 h light/8 h dark photoperiod; 60±5% RH; 25±2° C.). Prior to being used for aphid rearing, fava bean plants were grown in potting soil at 24° C. with 16 h of light and 8 h of darkness. To limit maternal effects or health differences between plants, 5-10 adults from different plants were distributed among 10 two-week-old plants, and allowed to multiply to high density for 5-7 days. For experiments, first and second instar aphids were collected from healthy plants and divided into 2 different treatment groups: 1) negative control (leaf injected with water plus blue food coloring) and 2) leaf injected with 50 μg/ml rifampicin in water plus blue food coloring. Each treatment group received approximately the same number of individuals from each of the collection plants. For treatment, rifampicin stock solution (25 mg/ml in 100% methanol) was diluted to 50 μg/ml in water plus blue food coloring. The solution was then placed into a 1.5 ml Eppendorf tube with a fava bean stem perfused with the solutions and the opening of the tube was closed using parafilm. This feeding system was then placed into a deep petri dish (Fisher Scientific, Cat #FB0875711) and aphids were applied to the leaves of the plant. For each treatment, 74-81 aphids were placed onto each leaf. The feeding systems were changed every 2-3 days throughout the experiment. Aphids were monitored daily for survival and dead aphids were removed from the deep petri dish when they were discovered. In addition, the developmental stage (1st, 2nd, 3rd, 4th, 5th and 5 R (5th that has reproduced) instar) was determined daily throughout the experiment.
In addition, the developmental stage (1st 2nd, 3rd, 4th, 5th and 5 R (5th that has reproduced) instar) was determined daily throughout the experiment.
(§3) In addition, the developmental stage (1st, 2nd, 3rd, 4th, 5th, and 5 R (5th that has reproduced) instar) was determined daily throughout the experiment.
In addition, the developmental stage (1st, 2nd, 3rd, 4th, 5th and 5 R (5th that has reproduced) instar) was determined daily throughout the experiment.
In addition, the developmental stage (1st, 2nd, 3rd, 4th, 5th, and 5 R (5th instar aphids that are reproducing) instar) was determined daily throughout the experiment.
In addition, the developmental stage (1st, 2nd, 3rd 4th and 5th instar) was determined daily throughout the experiment.
as §1, with “5th, and 5 R (5th that has reproduced)” for “5th”
as §3

[3] = test system: Asaia; experiment: Asaia quantification by qPCR in midguts of azithromycin blood-fed mosquitoes; format: in vivo, Anopheles coluzzii; conditions: azithromycin 0.1, 1 or 5 μg/ml in blood meals; midgut
Description: Therapeutic design: Blood meals mixed with azithromycin solutions are formulated with final antibiotic concentrations of 0 (negative control), 0.1, 1, or 5 μg/ml in 1 mL of blood.
Azithromycin solutions are made by dissolving azithromycin (SIGMA-ALDRICH, PZ0007) in DMSO. Different volumes of azithromycin solution are added to fresh blood to total 1 mL in preparation for blood meals. The final azithromycin concentrations in the blood are 0 (just solvent as control solution), 0.1, 1, or 5 μg/ml.
For each Plasmodium infection, at least 100 age-matched, 2- to 3-day-old, mosquitoes per condition are offered a control or experimental blood meal from a membrane-feeding device (2 ml Eppendorf tube) covered with parafilm and kept at 37° C. and nonengorged mosquitoes are removed. Meals are given every four days for a total of three blood meals. […] Deaths are counted daily and carcasses are removed and stored for Asaia analysis as described herein. […]
Before dissection, mosquitoes are immersed in 70% ethanol for 5 minutes then rinsed 3 times in sterile phosphate-buffered saline (PBS) to kill and remove surface bacteria, thus minimizing sample contamination with cuticle bacteria during dissection. […] The 16S ribosomal DNA (rDNA) is used for Asaia quantification and is shown as a ratio of the Anopheles housekeeping gene 40S ribosomal protein S7 (Vector-Base gene ID AGAP010592). […]

[4] = test system: Anopheles coluzzii mosquitoes; experiment: Survival of mosquitoes given azithromycin blood meals; format: in vivo; conditions: azithromycin 0.1, 1 or 5 μg/ml in blood meals
Description: For each Plasmodium infection, at least 100 age-matched, 2- to 3-day-old, mosquitoes per condition are offered a control or experimental blood meal from a membrane-feeding device (2 ml Eppendorf tube) covered with parafilm and kept at 37° C. and nonengorged mosquitoes are removed. Meals are given every four days for a total of three blood meals. Between the blood meals, mosquitoes are provided with a cotton pad moistened with distilled water for oviposition. Unfed mosquitoes are not removed after the second and later blood meals. Deaths are counted daily and carcasses are removed and stored for Asaia analysis as described herein. At least 50 mosquitoes per concentration of azithromycin are used for each replicate. At the end of the last blood meal, mosquitoes are kept for 12 hours before dissection.
The survival rates of mosquitoes treated with azithromycin are compared to the mosquitoes treated with the negative control.

[5] = test system: Buchnera; experiment: Buchnera/aphid DNA copy number by qPCR; format: in vivo, Acyrthosiphon pisum
[6] = test system: Acyrthosiphon pisum aphids; experiment: Aphid fecundity; format: in vivo; conditions: 10 or 100 uM
Description: as §1
(§4) For adult aphids, new nymphs were counted daily and then discarded. At the end of the experiments, fecundity was determined as the mean number of offspring produced daily once the aphid reached adulthood. Pictures of aphids were taken throughout the experiment to evaluate size differences between treatment groups.
as §1, with “5th, and 5 R (5th that has reproduced)” for “5th”
(§5) For adult aphids, new nymphs were counted daily and then discarded. At the end of the experiments, fecundity was measured in two ways: 1) the mean day at which the first offspring for the treatment group was determined and 2) the mean number of offspring produced daily once the aphid reached adulthood. […]
In addition, the developmental stage (1st, 2nd, 3rd, 4th, 5th instar) was determined daily throughout the experiment. […]

[7] = test system: Acyrthosiphon pisum aphids; experiment: Aphid size (body area) from images; format: in vivo; conditions: 10 or 100 uM in artificial diet, 3 days post-treatment
Description: as §4
as §2, with “Pictures of aphids were taken throughout the experiment to evaluate size differences between treatment groups.” left out
as §5
Aphids LSR-1 (which harbor only Buchnera), Acyrthosiphon pisum were grown on fava bean plants (Vroma vicia faba from Johnny's Selected Seeds) in a climate-controlled incubator (16 h light/8 h dark photoperiod; 60±5% RH; 25±2° C.). […] Aphids were monitored daily for survival and dead aphids were removed from the deep petri dish when they were discovered. […]

[8] = test system: gram-negative and gram-positive bacteria as well as fungi; conditions: cited from earlier work
[9] = leaf coating, 10 uM in 0.025% Silwet L-77

CC(=O)CCC(=O)O [levulinic acid]
aphid survival ([1]; 0.03%, 11-day experiment): higher mortality compared to control treated aphids | aphid survival ([1]; 0.03 or 0.3%): dose-dependent decrease in survival; also recorded: decrease in insect survival | aphid survival ([1]; 0.3%, 11-day experiment): significantly less | aphids that did not mature further than the 4rd instar stage ([2]; 0.03%): ~23% | aphid development ([2]; 0.03 or 0.3% in water, leaf injection and through plant, eNASCO): delayed aphid development | aphids that did not mature further than the 4rd instar stage ([2]; 0.3%): ~63%

CC[C@H]1OC(=O)[C@H](C)[C@@H](O[C@H]2C[C@@](C)(OC)[C@@H](O)[C@H](C)O2)[C@H](C)[C@@H](O[C@@H]2O[C@H](C)C[C@H](N(C)C)[C@H]2O)[C@](C)(O)C[C@@H](C)CN(C)[C@H](C)[C@@H](O)[C@]1(C)O [azithromycin]
Asaia specific genes (16S rDNA qPCR, ratio to S7) [3]: reduction of Asaia specific genes | survival rate of mosquitoes [4]: decreased compared to the control

O=C/C=C/c1ccccc1 [trans-cinnemaldehyde]
Buchnera/aphid DNA copies ([5]; lowest concentration (0.5%), 3 days): high ratios of Buchnera/aphid DNA copies | aphid survival ([1]; 0.05%, 0.5%, and 5%): dose-dependent decrease in survival; also recorded: significantly lower | aphid development ([2]; 0.05%, 0.5% and 5% in water, leaf perfusion and through plants, 3 days): delayed | aphid development ([2]; 0.05%, 0.5% and 5% in water, leaf perfusion and through plants, 3 days, listed as Trans-cinnemaldehyde): delayed aphid development | aphid development (stage reached) ([2]; 5%): remained at the 1st instar stage throughout the course of the experiment

CC(C)(CO)[C@@H](O)C(=O)NCCCO [pantothenol]
Buchnera/aphid DNA copies ([5]; 10 or 100 uM, 8 days): does not affect Buchnera/aphid DNA copy number directly | Buchnera/aphid DNA copies ([5]; 10 or 100 uM, 8 days, listed as Pantothenol): did not affect endosymbiotic Buchnera | aphid reproduction [6]: loss of aphid reproduction | aphid reproduction ([6]; listed as Pantothenol): loss of reproduction | aphid size (area) [7]: drastic effect; also recorded: smaller in area than untreated controls | aphid survival ([1]; 10 or 100 uM in artificial diet, through plants): increased aphid mortality; also recorded: negatively affected aphid fitness | aphid survival [1, 9]: lower survival rates | aphid survival ([1]; leaf coating, 10 uM in 0.025% Silwet L-77, listed as Pantothenol): aphid death | aphid development ([2]; 10 or 100 uM in artificial diet without essential amino acids, through plants, eNASCO): delayed aphid development | aphid development [2, 9]: did not affect aphid development

Cc1cc2c(C(C)C)c(O)c(O)c(C=O)c2c(O)c1-c1c(C)cc2c(C(C)C)c(O)c(O)c(C=O)c2c1O [gossypol, gossypol acetic acid]
time after which aphids began dying ([1]; 0.5%, through plants): 2 days | time by which all aphids succumbed to treatment ([1]; 0.5%, through plants): ≤ 4 days

B1: NCR335: NCR peptide, SEQ ID NO: 197 (peptide)
chain: MKMRIHMAQIIMFFYALIIFLSPFLVDRRSFPSSFVSPKSYTSEIPCKATRDCPYELYYETKCVDSLCTY
antimicrobial activity [8]: effective against gram-negative and gram-positive bacteria as well as fungi

From US12171801B2, “Compositions and related methods for controlling vector-borne diseases” (priority 2017, dated 2024)
